Key:
[1] = target: full-length recombinant human FYN A (Homo sapiens (Human), UniProt P06241); assay: ADP-Glo Kinase Assay of FYN kinase inhibition; type: biochemical; conditions: primary screen, initial compounds
How it was run: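 ADP-Glo read-out of peptide phosphorylation after 90 min RT with 12.5 pmol ATP and 100 pg 12-mer substrate. Enzyme was N-GST full-length human FYN A from insect cells, 3 pg, pre-incubated 30 min with compound, 10 points from 10 μM top, 3-fold steps; IC50 from curve.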

[2] = cited from earlier work

Chain of full-length recombinant human FYN A (P06241 whole entry): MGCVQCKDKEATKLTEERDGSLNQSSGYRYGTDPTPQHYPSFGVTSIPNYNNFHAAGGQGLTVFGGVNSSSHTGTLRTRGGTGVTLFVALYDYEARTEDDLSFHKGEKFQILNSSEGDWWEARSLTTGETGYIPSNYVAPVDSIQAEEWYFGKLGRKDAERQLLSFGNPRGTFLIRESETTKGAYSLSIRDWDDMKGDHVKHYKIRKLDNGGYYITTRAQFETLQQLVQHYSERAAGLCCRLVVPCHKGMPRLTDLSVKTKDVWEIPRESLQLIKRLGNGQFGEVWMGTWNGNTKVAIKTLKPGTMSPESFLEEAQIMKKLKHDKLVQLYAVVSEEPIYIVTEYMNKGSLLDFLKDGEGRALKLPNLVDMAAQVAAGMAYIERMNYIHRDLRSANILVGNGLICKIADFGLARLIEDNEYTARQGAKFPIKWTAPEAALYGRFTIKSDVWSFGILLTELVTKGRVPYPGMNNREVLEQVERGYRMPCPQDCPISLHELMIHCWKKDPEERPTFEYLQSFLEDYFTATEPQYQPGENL

Row | IC50 [1] [µM] | Compound | further results
1 | 5.25 | CC(=O)Nc1cc(-c2ccc(N)cc2)cn2c(-c3ccc(F)cc3)cnc12 [Compound 575, N-[6-(4-aminophenyl)-3-(4-fluorophenyl)imidazo[1,2-a]pyridin-8-yl]acetamide] | 
2 | 8.09 | Cn1cc(-c2cc(NC=O)c3ncc(-c4ccc(F)cc4)n3c2)cn1 [Compound 576, N-[3-(4-fluorophenyl)-6-(1-methylpyrazol-4-yl)imidazo[1,2-a]pyridin-8-yl]formamide] | 
3 | 1.18 | COc1cccc(-n2c(N)c(C(N)=O)c3nc4ccccc4nc32)c1 [Compound 577, 2-amino-1-(3-methoxyphenyl) pyrrolo[3,2-b]quinoxaline-3-carboxamide] | 
4 | 4.08 | Fc1cccc(-c2cnc3sc(NC4CCCCC4)nn23)c1 [Compound 578, N-cyclohexyl-5-(3-fluorophenyl) imidazo[2,1-d] [1,3,4]thiadiazol-2-amine] | 
5 | 3.16 | c1cncc(-c2cnc3sc(NCc4ccco4)nn23)c1 [Compound 579, N-(2-furylmethyl)-5-(3-pyridyl)imidazo [2,1-a][1,3,4] thiadiazol-2-amine] | 
6 | 5.64 | Cn1cc(-c2cnc3sc(NCc4ccco4)nn23)cn1 [Compound 580, N-(2-furylmethyl)-5-(1-methylpyrazol-4-yl)imidazo [2,1-b][1,3,4] thiadiazol-2-amine] | 
7 | 0.729 | COc1cncc(-c2cnc3sc(NCc4cccs4)nn23)c1 [Compound 581, 5-(5-methoxy-3-pyridyl)-N-(2-thienylmethyl) imidazo[2,1-b] [1,3,4]thiadiazol-2-amine] | 
8 | 2.75 | COc1ccc(-c2cnc3sc(NCC(C)C)nn23)cc1OC [Compound 582, 5-(3,4-dimethoxy-phenyl)-N-isobutyl-imidazo [2,1-b][1,3,4] thiadiazol-2-amine] | 
9 | 15.1 | CC(=O)c1cccc(-c2cnc3sc(NCC(C)C)nn23)c1 [Compound 583, 1-[3-[2-(isobutyl-amino)imidazo [2,1-a][1,3,4]thiadiazol-5-yl]phenyl] ethanone] | 
10 | 4.85 | c1cncc(-c2cnc3sc(NCC4CCOCC4)nn23)c1 [Compound 586, 5-(3-pyridyl)-N-(tetrahydropyran-4-ylmethyl) imidazo[2,1-b] [1,3,4]thiadiazol-2-amine] | 
11 | 9.65 | COc1ccc(CNc2nn3c(-c4cncc(OC)c4)cnc3s2)cc1 [Compound 588, N-[(4-methoxyphenyl)methyl]-5-(5-methoxy-3-pyridyl)imidazo [2,1-3][1,3,4] thiadiazol-2-amine] | 
12 | 1.08 | Cc1ccccc1CNc1nn2c(-c3cccnc3)cnc2s1 [Compound 589, N-(o-tolylmethyl)-5-(3-pyridyl) imidazo[2,1-b] [1,3,4]thiadiazol-2-amine] | 
13 | 30 | CN1CCN(c2ccc(Nc3cc4c(cn3)cc(-c3cccc(C(F)(F)F)c3)n4C)cc2)CC1 [Compound 590, 1-methyl-N-[4-(4-methylpiperazin-1-yl)phenyl]-2-[3-(trifluoromethyl)phenyl]pyrrolo [3,2-c]pyridin-6-amine] | 
14 | 16.8 | Cn1c(-c2cccc(C(F)(F)F)c2)cc2cnc(Nc3ccncn3)cc21 [Compound 591, 1-methyl-N-pyrimidin-4-yl-2-[3-(trifluoro-methyl)phenyl] pyrrolo[3,2-c]pyridin-6-amine] | 
15 | 12.9 | CN1CCN(c2ccc(Nc3cc4c(cn3)cc(-c3cccc(F)c3)n4C)cc2)CC1 [Compound 592, 2-(3-fluorophenyl)-1-methyl-N-[4-(4-methylpiperazin-1-yl)phenyl] pyrrolo[3,2-c]pyridin-6-amine] | 
16 | 9.09 | Cn1c(-c2cccc(F)c2)cc2cnc(Nc3ccncn3)cc21 [Compound 593, 2-(3-fluorophenyl)-1-methyl-N-pyrimidin-4-yl-pyrrolo[3,2-c]pyridin-6-amine] | 
17 | 4.07 | NC1=C(c2nc3ccccc3[nH]2)C(=O)CN1c1ccc2c(c1)OCO2 [Compound 594, 5-amino-4-(1H-benzimidazol-2-yl)-1-(1,3-benzodioxol-5-yl)-2H-pyrrol-3-one] | 
18 | 7.04 | CN1CCN(c2ccc(Nc3nccc4[nH]c(-c5ccc(C(=O)N(C)C)cc5)cc34)cc2)CC1 [Compound 595, N,N-dimethyl-4-[4-[4-(4-methylpiperazin-1-yl)anilino]-1H-pyrrolo[3,2-c]pyridin-2-yl]benzamide] | 
19 | 30 | COc1cc(OC)cc(-c2cc3c(N4CCOCC4)nccc3[nH]2)c1 [Compound 596, 4-[2-(3,5-dimethoxy-phenyl)-1H-pyrrolo[3,2-c]pyridin-4-yl]morpholine] | 
20 | 30 | COc1ccccc1-c1cc2c(Nc3ccc(NC(C)=O)cc3)nccc2[nH]1 [Compound 597, N-[4-[[2-(2-methoxyphenyl)-1H-pyrrolo[3,2-c]pyridin-4-yl]amino]phenyl] acetamide] | 
21 | 30 | COc1ccccc1-c1cc2c(Nc3cccc(C(F)(F)F)c3)nccc2n1C [Compound 598, 2-(2-methoxyphenyl)-1-methyl-N-[3-(trifluoromethyl)phenyl]pyrrolo [3,2-c]pyridin-4-amine] | 
22 | 18.4 | COc1ccc(OC)c(-n2c(-c3ccc(F)cc3)cn3c4c(=O)[nH]c(=O)n(C)c4nc23)c1 [Compound 599, 8-(2,5-dimethoxy-phenyl)-7-(4-fluorophenyl)-1-methyl-3H-imidazo [1,2-g]purine-2,4-dione] | 
23 | 2.26 | COC(=O)c1c(N)n(-c2cccc(O)c2)c2nc3ccccc3nc12 [Compound 600, methyl 2-amino-1-(3-hydroxy-phenyl)pyrrolo [3,2-b]quinoxaline-3-carboxylate] | 
24 |  | CN(C)S(=O)(=O)c1ccc2c(c1)/C(=C/c1cc3c([nH]1)CCCC3)C(=O)N2 [SU6656] | lipid utilization and energy utilization ([2]; Fyn knockout strains): no increase in either parameter; fat mass ([2]; treated mice relative to untreated control mice): significantly reduced

Row | Compound | IC50 [1] [µM] | further results
25 | c1ccc(CNc2nn3c(-c4cccnc4)cnc3s2)cc1 [Compound 584, N-benzyl-5-(3-pyridyl)imidazo [2,1-b][1,3,4] thiadiazol-2-amine] | 0.839 | 
26 | COc1cncc(-c2cnc3sc(NCc4ccccc4)nn23)c1 [Compound 585, N-benzyl-5-(5-methoxy-3-pyridyl)imidazo [2,1-b][1,3,4] thiadiazol-2-amine] | 0.343 | 
27 | COc1cncc(-c2cnc3sc(NCC4CCOCC4)nn23)c1 [Compound 587, 5-(5-methoxy-3-pyridyl)-N-(tetrahydro-pyran-4-ylmethyl)imidazo [2,1-d][1,3,4] thiadiazol-2-amine] | 0.384 | 

From patent US10688093B2, “Methods, compositions, and uses of novel Fyn kinase inhibitors” (priority 2015, dated 2020)
